Results as given in PMC7292393 (PLoS ONE, 2020).
Where “and” joins values, the source holds several entries; their conditions need not be identical. Identical values can stand only once. Entries after “also recorded” stand apart in the source; their conditions may differ. Like-named read-outs stand apart in the source and are kept apart here.

Assays:
human SUMO1 [1] = biological target: T1, human SUMO1 (Homo sapiens, UniProt P63165); test: Surface plasmon resonance (SPR) primary screen; format: binding;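 note: recombinant human SUMO1 amine-coupled to a sensor chip, blank activated and quenched reference flow cell, flavonoids injected 2 min then 1 min dissociation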
T1 construct: encoding amino acids 1–97 of mature human SUMO1; host or cells: E. coli BL21 Rosetta (DE3)
T1 sequence (P63165 1-97): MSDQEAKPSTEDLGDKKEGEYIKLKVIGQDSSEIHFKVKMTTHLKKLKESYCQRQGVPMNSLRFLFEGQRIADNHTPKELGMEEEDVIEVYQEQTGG

human SUMO1 [2] = biological target: T1, human SUMO1; test: SPR secondary screen / dose-dependent binding; set-up: key to SPR Screens 2°: ✓: dose-dependent saturation kinetics; ×: no indication of saturation kinetics
SUMO1^Δ15 = biological target: T2, SUMO1^Δ15 (Homo sapiens, UniProt P63165); test: Differential scanning fluorimetry (DSF) thermal shift; format: binding; settings: 2 μM SUMO1^Δ15, fisetin 20 to 200 μM
T2 construct: encoding amino acids 1–97 of mature human SUMO1; made in house; host or cells: E. coli BL21 Rosetta (DE3)
T2 sequence (P63165 with tags, fused parts or gaps limits assumed): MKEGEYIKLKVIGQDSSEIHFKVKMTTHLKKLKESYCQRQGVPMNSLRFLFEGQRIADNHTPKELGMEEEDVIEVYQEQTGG
Procedure: Here we used a variant of the human SUMO1 called SUMO1^Δ15 in which the N-terminal 15 amino acids of SUMO1 are removed. The first 15 amino acids of human SUMO1 are weakly conserved and reported to be unstructured, and so therefore might contribute to its instability. […] We next compared SUMO1^Δ15 directly with wild-type SUMO1.
Fluorescence-based thermal shift assays known as differential scanning fluorimetry (DSF) were performed following the general protocol described in [28]. In short, 20 μl reactions were prepared with 2 μM human SUMO1 or SUMO1^Δ15 protein exchanged in DSF buffer (50 mM Tris-Cl pH 8.0, 150 mM NaCl, 10% glycerol), 10X SYPRO Orange (ThermoFisher Scientific, Waltham, MA), and 0.3 μl of DMSO control or flavonoid dissolved in DMSO. PCR plates (white non-skirted, 96-well) were sealed with optical film, centrifuged, and incubated at 4 °C for 30 min prior to analysis. Thermal scanning (20°C for 30 s, followed by ramping from 20 °C to 90 °C at 0.5 °C/15 s) was performed using a real-time PCR setup (CFX384 Touch, Biorad, Hercules, CA) with filter sets for measurement of relative fluorescence units (RFU) at 0.5°C intervals. Tm was calculated from the maxima of the first derivative of RFU/temperature using GraphPad Prism7. For the HSF1 denaturation experiment, recombinantly expressed and affinity purified human HSF1 was exchanged in DSF buffer. […]

[3] = biological target: T3, sumoylation of HSF1 by SUMO1 (Homo sapiens, UniProt P63165); test: In vitro sumoylation (SUMOlink SUMO-1 Kit), Western blot; format: biochemical; settings: 300 μM fisetin, 30°C for 3 hr
T3 construct: purchased Active Motif 40120; host or cells: HSF1 substrate made in house in E. coli BL21 Rosetta (DE3)
T3 sequence (P63165 1-97 limits assumed): as the sequence (P63165 1-97) above
Excerpt: (§1) To this end, we performed in vitro sumoylation experiments in which the cellular sumoylation reaction was reconstituted using purified human SUMO1, E1 activating enzyme, E2 conjugating enzyme, and two putative protein substrates (human tumor suppressor p53 and human transcription factor HSF1). E1 activating enzyme functions by transferring active SUMO1 protein to the E2 conjugating enzyme Ubc9, which in turn attaches SUMO1 onto target protein substrates. Both p53 and HSF1 proteins are linked to sumoylation as well as to cancer pathways.
(§2) Proteins were separated by SDS-PAGE using 4–20% or 7.5% Mini-PROTEAN TGX Precast Protein Gels (Bio-Rad, Hercules, CA) followed by detection with Bio-Safe Coomassie Stain (Bio-Rad). For Western immunoblotting experiments, proteins in SDS-PAGE gels were transferred onto a PVDF membrane at 4°C using Mini Trans-Blot Cell (Bio-Rad), blocked with 5% nonfat milk for 1 hr at room T or overnight at 4°C and incubated with the following primary antibodies at indicated dilutions for 1 hr at room T: 1:10,000 HSF1 polyclonal antibody (Enzo Life Sciences ADI-SPA-901-F; Lausen, Switzerland), 1:4000 p53 rabbit antibody (SUMOlink SUMO-1 Kit), 1:5000 SUMO-1 rabbit antibody (SUMOlink SUMO-1 Kit). Secondary antibody incubation was performed for 1 hr at room T using 1:10,000 goat anti-rabbit IgG polyclonal antibody (Enzo Life Sciences, ADI-SAB-300). […]

[4] = biological target: T4, sumoylation of tumor suppressor p53 by SUMO1 (Homo sapiens, UniProt P63165); test: as above; format: biochemical; settings: 300 μM fisetin, 30°C for 3 hr
T4 construct: purchased Active Motif 40120
T4 sequence (P63165 1-97 limits assumed): as the sequence (P63165 1-97) above
Excerpt: as §1, §2

%RUmax (human SUMO1 [1]; SPR primary screen, 500 μM flavonoid in DMSO, (Mean RU/RUmax)*100): 18.9%
Kd (human SUMO1 [2]; fisetin ~12 to 250 μM, Fig 2I, average of six replicates, read-out: Kd (SPR, extended range of concentrations)): 228 µM and ~228 µM
SPR Screens 2° (human SUMO1 [2]; five concentrations 31.25-500 μM): ✓
Kd (human SUMO1 [2]; one-site hyperbola fit, 31.25-500 μM flavonoid, Fig 2A-C, read-out: Kd (SPR secondary screen)): 124 µM and ~124 µM
Kd (human SUMO1 [2]; range over the two experiments, Fig 2A and 2I, read-out: estimated Kd ranging (SPR)): 124 to 228 µM
dose-dependent effect on DSF thermogram of SUMO1^Δ15 (SUMO1^Δ15): thermal destabilization
sumoylation of HSF1 in vitro [3]: failed to alter sumoylation
Structure (SMILES): O=c1c(O)c(-c2ccc(O)c(O)c2)oc2cc(O)ccc12 [Fisetin, 3,3',4',7-tetrahydroxyflavone]
SPR Screens 1° (human SUMO1 [1]; 500 μM flavonoid in DMSO, cut-off of %RUmax of ~15): ✓ (%RUmax with binding activity above cut-off)
interaction in SPR primary screen (human SUMO1 [1]; 500 μM, %RUmax above threshold of ~15%): interacted with SUMO1 in the primary screen
saturation binding in SPR secondary screen (human SUMO1 [2]; Fig 2A-H): exhibited binding that approached saturation
sumoylation of p53 in vitro [4]: no SUMO conjugates of p53 were detected; also recorded: completely inhibits sumoylation
